# Measured values: the supplement of paper PMC10307832
# Key:
# Assay in all cases: relative viability (nuclei count vs DMSO), 5 days (fraction); higher = more cells survive
# A-427 = tested on: A-427
# In short: (§1)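 Values are medians from duplicate plates. Each reflects relative viability, defined as the nuclei count of treated wells over that of vehicle wells. Lung cancer cell lines in 1536-well plates were pin-tool dosed one day after seeding with one drug alone or with a fixed anchor-drug dose plus five library-drug doses (not always all listed) in √10 steps, then fixed, stained and imaged at 4× after 5 days.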
# COR-L 105 = tested on: COR-L 105
# In short: as §1
# ChaGo-K-1 = tested on: ChaGo-K-1
# In short: as §1
# EKVX = tested on: EKVX
# In short: as §1
# EMC-BAC-2 = tested on: EMC-BAC-2
# In short: as §1
# H3255 = tested on: H3255
# In short: as §1
# HCC-366 = tested on: HCC-366
# In short: as §1
# LK-2 = tested on: LK-2
# In short: as §1
# LOU-NH91 = tested on: LOU-NH91
# In short: as §1
# NCI-H1563 = tested on: NCI-H1563
# In short: as §1
# NCI-H1666 = tested on: NCI-H1666
# In short: as §1
# NCI-H1734 = tested on: NCI-H1734
# In short: as §1
# NCI-H1755 = tested on: NCI-H1755
# In short: as §1
# NCI-H1975 = tested on: NCI-H1975
# In short: as §1
# NCI-H2170 = tested on: NCI-H2170
# In short: as §1
# NCI-H23 = tested on: NCI-H23
# In short: as §1
# NCI-H441 = tested on: NCI-H441
# In short: as §1
# NCI-H520 = tested on: NCI-H520
# In short: as §1
# NCI-H596 = tested on: NCI-H596
# In short: as §1
# PC-3 [JPC-3] = tested on: PC-3 [JPC-3]
# In short: as §1
# SK-MES-1 = tested on: SK-MES-1
# In short: as §1
# SW 900 = tested on: SW 900
# In short: as §1
compound,measurement,setting,value
O=c1cc(N2CCOCC2)oc2c(-c3cccc4c3sc3ccccc34)cccc12 + COc1cccc2cc(-c3nc([C@H]4CC[C@H](C(=O)O)CC4)n4ncnc(N)c34)[nH]c12 [OSI-027] (partner 0.5 µM),relative viability,A-427; first compound 0.01 µM,0.514
same,relative viability,A-427; first compound 0.03162 µM,0.469
same,relative viability,A-427; first compound 0.1 µM,0.337
same,relative viability,A-427; first compound 0.3162 µM,0.484
same,relative viability,A-427; first compound 1 µM,0.587
same,relative viability,COR-L 105; first compound 0.01 µM,0.668
same,relative viability,COR-L 105; first compound 0.03162 µM,0.825
same,relative viability,COR-L 105; first compound 0.1 µM,0.656
same,relative viability,COR-L 105; first compound 0.3162 µM,0.786
same,relative viability,COR-L 105; first compound 1 µM,0.553
same,relative viability,ChaGo-K-1; first compound 0.01 µM,0.488
same,relative viability,ChaGo-K-1; first compound 0.03162 µM,0.681
same,relative viability,ChaGo-K-1; first compound 0.1 µM,0.363
same,relative viability,ChaGo-K-1; first compound 0.3162 µM,0.706
same,relative viability,ChaGo-K-1; first compound 1 µM,0.628
same,relative viability,EKVX; first compound 0.01 µM,0.673
same,relative viability,EKVX; first compound 0.03162 µM,0.715
same,relative viability,EKVX; first compound 0.1 µM,0.659
same,relative viability,EKVX; first compound 0.3162 µM,0.719
same,relative viability,EKVX; first compound 1 µM,0.749
same,relative viability,EMC-BAC-2; first compound 0.01 µM,0.409
same,relative viability,EMC-BAC-2; first compound 0.03162 µM,0.427
same,relative viability,EMC-BAC-2; first compound 0.1 µM,0.419
same,relative viability,EMC-BAC-2; first compound 0.3162 µM,0.423
same,relative viability,EMC-BAC-2; first compound 1 µM,0.385
same,relative viability,H3255; first compound 0.01 µM,0.659
same,relative viability,H3255; first compound 0.03162 µM,0.503
same,relative viability,H3255; first compound 0.1 µM,0.584
same,relative viability,H3255; first compound 0.3162 µM,0.668
same,relative viability,H3255; first compound 1 µM,0.536
same,relative viability,HCC-366; first compound 0.01 µM,1
same,relative viability,HCC-366; first compound 0.03162 µM,1.38
same,relative viability,HCC-366; first compound 0.1 µM,1.12
same,relative viability,HCC-366; first compound 0.3162 µM,0.928
same,relative viability,HCC-366; first compound 1 µM,0.955
same,relative viability,LK-2; first compound 0.01 µM,0.24
same,relative viability,LK-2; first compound 0.03162 µM,0.361
same,relative viability,LK-2; first compound 0.1 µM,0.181
same,relative viability,LK-2; first compound 0.3162 µM,0.219
same,relative viability,LK-2; first compound 1 µM,0.212
same,relative viability,LOU-NH91; first compound 0.01 µM,0.68
same,relative viability,LOU-NH91; first compound 0.03162 µM,0.754
same,relative viability,LOU-NH91; first compound 0.1 µM,0.728
same,relative viability,LOU-NH91; first compound 0.3162 µM,0.779
same,relative viability,LOU-NH91; first compound 1 µM,0.702
same,relative viability,NCI-H1563; first compound 0.01 µM,0.695
same,relative viability,NCI-H1563; first compound 0.03162 µM,0.741
same,relative viability,NCI-H1563; first compound 0.1 µM,0.773
same,relative viability,NCI-H1563; first compound 0.3162 µM,0.794
same,relative viability,NCI-H1563; first compound 1 µM,0.697
same,relative viability,NCI-H1666; first compound 0.01 µM,0.864
same,relative viability,NCI-H1666; first compound 0.03162 µM,0.922
same,relative viability,NCI-H1666; first compound 0.1 µM,0.847
same,relative viability,NCI-H1666; first compound 0.3162 µM,0.839
same,relative viability,NCI-H1666; first compound 1 µM,0.79
same,relative viability,NCI-H1734; first compound 0.01 µM,0.697
same,relative viability,NCI-H1734; first compound 0.03162 µM,0.599
same,relative viability,NCI-H1734; first compound 0.1 µM,0.579
same,relative viability,NCI-H1734; first compound 0.3162 µM,0.67
same,relative viability,NCI-H1734; first compound 1 µM,0.609
same,relative viability,NCI-H1755; first compound 0.01 µM,0.785
same,relative viability,NCI-H1755; first compound 0.03162 µM,0.691
same,relative viability,NCI-H1755; first compound 0.1 µM,0.783
same,relative viability,NCI-H1755; first compound 0.3162 µM,0.673
same,relative viability,NCI-H1755; first compound 1 µM,0.685
same,relative viability,NCI-H1975; first compound 0.01 µM,0.718
same,relative viability,NCI-H1975; first compound 0.03162 µM,0.73
same,relative viability,NCI-H1975; first compound 0.1 µM,0.792
same,relative viability,NCI-H1975; first compound 0.3162 µM,0.874
same,relative viability,NCI-H1975; first compound 1 µM,0.752
same,relative viability,NCI-H2170; first compound 0.01 µM,0.716
same,relative viability,NCI-H2170; first compound 0.03162 µM,0.845
same,relative viability,NCI-H2170; first compound 0.1 µM,0.716
same,relative viability,NCI-H2170; first compound 0.3162 µM,0.716
same,relative viability,NCI-H2170; first compound 1 µM,0.716
same,relative viability,NCI-H23; first compound 0.01 µM,0.641
same,relative viability,NCI-H23; first compound 0.03162 µM,0.633
same,relative viability,NCI-H23; first compound 0.3162 µM,0.757
same,relative viability,NCI-H23; first compound 1 µM,0.723
same,relative viability,NCI-H441; first compound 0.01 µM,0.679
same,relative viability,NCI-H441; first compound 0.03162 µM,0.617
same,relative viability,NCI-H441; first compound 0.1 µM,0.537
same,relative viability,NCI-H441; first compound 0.3162 µM,0.614
same,relative viability,NCI-H441; first compound 1 µM,0.648
same,relative viability,NCI-H520; first compound 0.01 µM,0.284
same,relative viability,NCI-H520; first compound 0.03162 µM,0.299
same,relative viability,NCI-H520; first compound 0.1 µM,0.235
same,relative viability,NCI-H520; first compound 0.3162 µM,0.229
same,relative viability,NCI-H520; first compound 1 µM,0.323
same,relative viability,NCI-H596; first compound 0.01 µM,0.738
same,relative viability,NCI-H596; first compound 0.03162 µM,0.747
same,relative viability,NCI-H596; first compound 0.1 µM,0.493
same,relative viability,NCI-H596; first compound 0.3162 µM,0.828
same,relative viability,NCI-H596; first compound 1 µM,0.722
same,relative viability,PC-3 [JPC-3]; first compound 0.01 µM,0.762
same,relative viability,PC-3 [JPC-3]; first compound 0.03162 µM,0.768
same,relative viability,PC-3 [JPC-3]; first compound 0.1 µM,0.644
same,relative viability,PC-3 [JPC-3]; first compound 0.3162 µM,0.738
same,relative viability,PC-3 [JPC-3]; first compound 1 µM,0.825
same,relative viability,SK-MES-1; first compound 0.01 µM,0.613
same,relative viability,SK-MES-1; first compound 0.03162 µM,0.685
same,relative viability,SK-MES-1; first compound 0.1 µM,0.531
same,relative viability,SK-MES-1; first compound 0.3162 µM,0.633
same,relative viability,SK-MES-1; first compound 1 µM,0.579
same,relative viability,SW 900; first compound 0.01 µM,0.565
same,relative viability,SW 900; first compound 0.03162 µM,0.572
same,relative viability,SW 900; first compound 0.1 µM,0.311
same,relative viability,SW 900; first compound 0.3162 µM,0.69
same,relative viability,SW 900; first compound 1 µM,0.545
